# According to patent publication US20240124938A1, “VISUAL DETECTION OF PBD INDUCED DNA CROSSLINKS” (INSERM (INSTITUT NATIONAL DE LA SANTÉ ET DE LA RECHERCHE …, priority 2019, published 2024):
# Tested on: DNA crosslinks in mouse bone marrow cells
# Test: Detection of SJG-136-click in mouse bone marrow by confocal microscopy (click labelling of DNA crosslinks)
# Type: in vivo
# Conditions: mice treated 0.3 mg/kg, 45 minutes; for click-647 (Alexa Fluor 647 azide) signal observed by confocal imaging: sites of reticulation (DNA crosslinks): 10 μm bone marrow sections of femur/tibia, click-it solution with Alexa Fluor 647 azide, FIG. 1 middle column
# Description: FIG. 1 represents confocal microscopy observations of samples of mice bone marrow in mouse femur tissues treated with 0.3 mg·kg^−1 of either SJG136 (top line of images) (corresponding to a compound outside of the invention) or SJG136-click (bottom line of images) (corresponding to the compound of formula (IV) according to the invention). The nucleus of the sample's cells are identified on the left column by DAPI staining. The middle column represents images obtained by exposing clickable 647 fluorophore (Alexa Fluor™ 647 azide, sold by the company Thermo Fisher) to the samples treated with SJG136 or SJG136-click to detect the SJG136 or SJG136-click. On the right column, observations from the left and middle column are merged. Some of the observable DNA crosslinking are indicated by white arrows in the middle and right cases of the bottom line.
# Mice were treated with a compound of formula (IV) according to the invention (0,3 mg/kg) during 45 minutes.
# The bone(s) (i.e. femur and tibia) were dissected from the mouse and surrounding muscle(s) were removed. Said bone(s) were immediately fixed with 4% ice-cold PFA solution for 24 hours at 4° C. in a 15 mL conical tube. The bone sample(s) were then washed three times with PBS. Each wash was carried out for 5 minutes at 4° C. with 7 mL of PBS under constant agitation.
# A DCAL solution, containing 0.5 M of EDTA, was prepared by dissolving 186.1 g of EDTA in 800 mL of ddH2O with the addition of about 20 g of NaOH pellets to bring the mixture to a pH in the range of 7.4-7.6 by continuous stirring. The volume is adjusted to 1 L and the solution is filtered on a 0.5 μm filter.
# A cryoprotectant (CPT) solution (1×) was also prepared by dissolving 200 g of sucrose and 20 g of polyvinylpyrrolidone (PVP) in 700 mL of PBS under constant stirring by a magnetic stirrer. The volume was then adjusted to 1 L and the solution was mixed until a homogeneous solution was obtained. […]
SMILES,click-647 (Alexa Fluor 647 azide) signal observed by confocal imaging: sites of reticulation (DNA crosslinks),"localisation of click-647 light spots relative to DAPI-stained nuclei (merged image) (bone marrow sections, merge of DAPI and click-647 images, FIG. 1 right column)"
"C=C1C[C@H]2C=Nc3cc(OCCCOc4cc5c(cc4OC)C(=O)N4CC(=C)C[C@H]4C=N5)c(OC)cc3C(=O)N2C1 [SJG136, reference compound]",nothing is visible,
"C#CCC(COc1cc2c(cc1OC)C(=O)N1CC(=C)CC1C=N2)COc1cc2c(cc1OC)C(=O)N1CC(=C)CC1C=N2 (stereo not drawn) [SJG136-click, 8,8′-((2-(prop-2-yn-1-yl)propane-1,3-diyl)bis(oxy))bis(7-methoxy-2-methylene-2,3-dihydro-1H-benzo[e]pyrrolo[1,2-a][1,4]diazepin-5(11aH)-one)]","several light spots, clearly distinct one from the others",all the light spots observed are within the nucleus of cells
